In a melting point compilation (Tetko et al.; mined from patent text by program, amines drawn as free bases though some values may be those of a salt):

Row | Structure (SMILES) | melting point [°C]
1 | N#Cc1cnn2c1N(C(=O)CN1CCC(c3ccccc3)CC1)CC=C2c1cc(Cl)ccc1Cl | 199 to 200
2 | O=C1NC(=O)C(c2ccc(N3C(=O)c4ccccc4C3=O)cc2)S1 (centres undefined) | 243 to 245
3 | CCOC(=O)c1cnn(-c2ccccc2N)c1O | 151 to 154
4 | CCOC(=O)/C=C/c1cc2nc(CC)n(CCc3ccccc3)c(=O)c2cc1F | 140 to 142
5 | CCCCCCCCCCCCCCC(O)(CCCCCC(=O)O)CCCCCC(=O)O | 79 to 80
6 | CCCCCCC(C)(C)c1ccc(C2CCCNC2)c(O)c1 (centres undefined) | 138 to 140
7 | Nc1cccc(Oc2ccc(Sc3ccc(Oc4cccc(N)c4)cc3)cc2)c1 | 112 to 113
8 | COc1ccc2c(c1)NC(=O)C(C(=O)N(C)C)C2 (centres undefined) | 209 to 210
9 | CC1CC(=O)c2c(SCc3ccccc3)ccc(-c3ccccn3)c2C1 (centres undefined) | 163 to 165
10 | COP(=O)(OC)C1CC(c2ccc([N+](=O)[O-])cc2)=NO1 (centres undefined) | 156 to 158
11 | O=C(O)[C@@H]1CCCN(CC#CCN2c3ccccc3CCc3ccccc32)C1 | 153 to 154
12 | COc1cc(N)c(Cl)cc1C(=O)NCC1CCN(CCCCCC(=O)c2ccc(Cl)cc2Cl)CC1 | 150 to 155
13 | Cc1nc2c(OCc3ccccc3)nccc2n1C | 115 to 116
14 | S=C(NCCc1ccccn1)NN=C(CCCCl)c1ccccc1 | 126 to 129
15 | CNC1=Nc2ccc([N+](=O)[O-])cc2C(c2ccccc2Cl)=NC1 | 219 to 221
16 | COC(=O)CN1C(=O)CN=C(c2ccccc2Cl)c2cc(Cl)ccc21 | 193 to 194
17 | O=C(NCCCC(CCCNC(=O)c1ccccc1)OC(F)(F)F)c1ccccc1 | 115 to 118
18 | O=S1(=O)CCN2C=CC=C(c3ccc(OCC4CCOCC4)cc3)C2=N1 | 268 to 269
19 | Cc1nnc(-c2ccc3ncn(-c4cccc(OC(F)(F)F)c4)c3c2)o1 | 153 to 154
20 | COC(=O)C(C)(C)OCC#Cc1cc(C(F)(F)F)ccc1NS(=O)(=O)c1cc(C)cc(C)c1 | 128 to 130
21 | COC(=O)c1cc(Cl)c2c(c1OC)CCCN2 | 105 to 108

Row | Structure (SMILES) | melting point [°C]
22 | O=S1(=O)CCN(Cc2ccc(Br)cn2)CC1 | 129 to 131
23 | CC(C)(C)c1ccc(C2(Cl)CN(C(c3ccccc3)c3ccccc3)C2)cc1 | 145
24 | COc1cc2c(cc1Nc1ncc(Cl)c(Nc3ccc(N4CCOCC4)cc3OC)n1)C(C)(C)CCC(=O)N2 | 246 to 248
25 | COC(=O)c1c(NCc2ccc(OC)c(Cl)c2)nc(SC)nc1OC | 124 to 126
26 | CNc1nc(C)c(-c2ccc(Cl)c([N+](=O)[O-])c2)s1 | 220 to 232
27 | O=C1CC2(c3ccccc3)CCCC=C2C(=O)N1CC1CCCCC1 (centres undefined) | 111 to 113
28 | CC(C)(C)OC(=O)NC1CN(C(C(=O)OC(c2ccccc2)c2ccccc2)c2ccc(OC(=O)OC(C)(C)C)cc2)C1=O (centres undefined) | 155 to 157
29 | COCc1c(C(C)=O)ncc2c1c1cc(OCc3ccccc3)ccc1n2S(=O)(=O)c1ccc(C)cc1 | 173 to 175
30 | CCC(SN(C(=O)NC(=O)c1c(F)cccc1F)c1ccc(Oc2ccc(C(F)(F)F)cc2Cl)cc1F)C(=O)NC (centres undefined) | 136 to 138
31 | CC(=O)Oc1cc2ccccc2cc1C(N)=O | 201 to 202
32 | Cc1cc(C)c2nc(NCCCN3CCOCC3)n(Cc3nc(C)ccc3O)c2c1 | 228
33 | COc1cc(OC)cc(N2CCN(C(=O)N(c3nc4ccccc4nc3OC)C(C)C)CC2)c1 | 110 to 112
34 | COC(=O)CC(SC(C)=O)C(CC(C)C)C(=O)NC1CCCCCCCCCCNC1=O (centres undefined) | 213 to 216
35 | N#Cc1cc(NC(=O)c2cccn2-c2ccc(F)cc2)ccc1N1CCCCC1 | 158 to 159
36 | O=C(O)CNC(=O)c1c(F)cccc1[N+](=O)[O-] | 148 to 150
37 | COc1cc2cc(C(=O)OCc3ccccc3)[nH]c2cn1 | 182
38 | Cc1cccc(C)c1C(=O)c1nc[nH]c1C | 179 to 181
39 | CN1Cc2c(C#CBr)ncn2-c2ccc(F)cc2C1=O | 167
40 | COCN1C(=O)CN2CCOC2(c2ccccc2Cl)c2cc(Cl)ccc21 (centres undefined) | 144 to 147
41 | Cc1onc(-c2ccc(C(F)(F)F)cc2)c1CCC(=O)O | 138 to 139
42 | Cc1c(N2C[C@@H](NC(=O)C(F)(F)F)C(C)(C)C2)c(F)c(N)c2c(=O)c(C(=O)O)cn(C3CC3)c12 | 254 to 255

Continued, values first:

Row | melting point [°C] | Structure (SMILES)
43 | 144 to 146 | CCC(=O)c1[nH]c2cc(Cl)ccc2c1N
44 | 235 to 240 | CNC(=O)C(Cc1ccc(OC)cc1)NC(=O)CC(SC(C)=O)C(CC(C)C)C(N)=O (centres undefined)
45 | 185 | Cc1c(C(=O)Nc2ccc(N3CCCC3)c(C#N)c2)cnn1-c1ccc(F)cc1
46 | 205 to 208 | CN(C)Cc1ccccc1Oc1cccc(CC(=O)O)c1
47 | 210 to 212 | O=C1NS(=O)(=O)c2cccc(Cl)c21
48 | 175 to 177 | CC(C)S(=O)(=O)NC(=O)c1cccc([N+](=O)[O-])c1
49 | 198 to 200 | COc1cc(C=CC(=O)Nc2cnc3c(C)cc(C)cc3c2-c2ccccc2Cl)cc(OC)c1OC
50 | 148 to 150 | COC(=O)C(=O)c1cn(CCO)c2ccc(OCc3ccccc3)cc12
51 | 161 to 163 | Oc1ccc2c(c1)CC(NCc1ccccc1)CC2 (centres undefined)
52 | 229 to 230 | Cc1ccc(-n2c3ccc(C=O)cc3c3cc(C=O)ccc32)cc1
53 | 143 to 147 | CCCCOc1cc2cc(C(=O)OC)c(C(=O)OC)c(-c3ccnc(Cl)c3)c2cc1OC
54 | 140 to 141 | OCc1cc(-c2ccccc2)nn1Cc1ccc(Cl)cc1Cl
55 | > 250 | COc1ccc2ncc(C#N)c(Nc3ccc4cn[nH]c4c3)c2c1
56 | 102 to 105 | O=C(O)CC(O)(CC(=O)O)C(F)(F)F
57 | 132 to 133 | CC(C)c1ccccc1Sc1c(O)cc(-c2ccc(OCCCc3ccccc3)cc2)oc1=O
58 | 217 to 219 | Cn1c(=O)c(-c2c(Cl)cccc2Cl)cc2cnc(NCc3ccccc3)nc21
59 | 147 to 151 | CC(=O)C1=CCC2C3CCC4CC(OS(=O)(=O)c5ccc(C)cc5)CCC4(C)C3C(=O)CC12C (centres undefined)
60 | 148 to 150 | COc1ccc2cc(O)c(C(C)(C)O)cc2c1
61 | 106 to 107 | Cc1oc(-c2ccccc2)nc1CCOc1ccc(CON=C(CCC(=O)O)c2ccccc2)cc1

Row | melting point [°C] | Structure (SMILES)
62 | 160 to 162 | Cc1nc(N)nc(N)c1OCCCc1ccccc1
63 | 92 to 93.5 | CCOC(=O)C(C)(C#N)c1cccc2c(-c3ccc(Cl)cc3)nccc12 (centres undefined)
64 | 202 to 208 | Cc1ccccc1-c1cc(C(=O)NC(=N)N)c2ccc(O)cc2n1
65 | 190 to 195 | CC(C)(C)OC(=O)c1ccc(C=Cc2cnc(N)c(C#N)c2)cc1
66 | 165 to 166 | O=C1c2ccccc2COc2ccc(O)cc21
67 | 143 to 144 | Cc1nn(-c2ccc(C(F)(F)F)cn2)cc1CCCOc1cc(CC(=O)O)n(C)n1
68 | 98 to 100 | N#Cc1[nH]c(-c2ccc(Cl)cc2)c(Br)c1-c1ccc(Cl)cc1
69 | 208 | N#Cc1cnn2cccc2c1NC1(c2ccc(Cl)cc2Cl)CC1
70 | 69 to 70 | CCCCCCCCS(=O)(=O)C(Cc1ccc(OCCN2CCCCC2)cc1)C(=O)NO (centres undefined)
71 | 260 to 261 | NC(=O)c1cccc2c1nc(-c1c(F)cccc1F)n2Cc1c(F)cccc1F
72 | 55 to 60 | CCCCCCCCN(CCCCCCCC)C(=O)Nc1ccccc1CCc1cc(C(C)(C)C)c(O)c(C(C)(C)C)c1
73 | 186 to 192 | Cn1ccc2c(ccc3[nH]cc(CCNCc4ccccc4)c32)c1=O
74 | 50 to 54 | CC(=O)SCCC(=O)[C@H]1CC[C@H]1C(=O)O (relative stereo)
75 | 121 to 123 | CCNC(=O)c1c(Cl)cccc1C(C)(C)C
76 | 220 to 222 | CC(CCC(=O)NC(C)(C)CO)C1CCC2C3C(=O)CC4CC(O)CCC4(C)C3CCC12C (centres undefined)
77 | 254 | CCOP(=O)(OCC)C1CCc2c([N+](=O)[O-])c(C(F)(F)F)cc3[nH]c(=O)c(=O)n1c23 (centres undefined)
78 | 199 to 201 | Nc1ncnc2c1nc(Br)n2Cc1ccccc1
79 | 112 | C=CCC1(CC=C)CCC(=Cc2ccc(F)cc2)C1(O)Cn1cncn1 (centres undefined)
80 | 203 to 204 | Cc1cccc(-c2nc3cccnn3c2-c2ccnc(NC(=O)C3CC3)c2)c1

Row | melting point [°C] | Structure (SMILES)
81 | 174 to 175 | CN1C(=O)N(c2c(Cl)cccc2Cl)Cc2cnc(NCCc3ccc(N)cc3)nc21
82 | 171 | NS(=O)(=O)c1ccc(-c2cscc2-c2ccccc2)cc1F
83 | 157 to 159 | O=[N+]([O-])c1ccc(-n2cnc(CO)c2)c(F)c1
84 | 260 | Clc1nc(C2=NCCN2)[nH]c1Cl
85 | 110 to 112 | CCOC(=O)c1ccc(NC=CS(=O)(=O)F)cc1
86 | 106 to 108 | COc1ccc(CO)nc1I
87 | 101 | N#Cc1ccccc1S(=O)(=O)N1CCCC1c1ccc(F)cc1 (racemic)
88 | 237 to 239 | Nc1ncnc2c1ncn2[C@@H]1CO[C@H](CO)[C@@H](O)C1
89 | 245 to 246 | Cc1cccc(C)c1CNc1cc(CO)cc2c1nc(C)n2C
90 | 134 to 135 | N#Cc1ccccc1N1CCC2(CC1)OCCO2
91 | 89 to 90 | CCOC(=O)C1=C(C)NC(COC(C)=O)=C(C(=O)OCC)C1c1ccc(OC)cc1 (centres undefined)
92 | 179 to 181 | O=[N+]([O-])c1cc(Cl)c(Cl)cc1N[C@@H]1C[C@H](CO)[C@@H](O)[C@H]1O
93 | 132 | CCOC(=O)Nc1cc(Oc2ccc3ccccc3c2)c(C#N)cc1F
94 | 55 to 60 | CC(C)(CS(=O)(=O)c1ccc(Cl)cc1)C(=O)C(Oc1ccc(Cl)cc1)n1cncn1 (centres undefined)
95 | 80 to 84 | CCCN(C)c1nc(N)nc2c1ncn2C1CC(F)C(CO)O1 (centres undefined)
96 | 126 to 127 | CCN(CC)CCCCC1CCN(C(=O)N2c3ccccc3C(=O)Nc3cccnc32)CC1
97 | 184 | O=C(CN1CCN(C(c2ccc(F)cc2)c2ccc(F)cc2)CC1)NC1(C(=O)O)Cc2ccc(-c3ccc(Cl)cc3)cc2C1 (centres undefined)
98 | 114 to 117 | Cc1cc(Oc2ccc([N+](=O)[O-])c(C)c2)n[nH]1
99 | 136 to 138 | COc1cc(NCCN(Cc2ccccc2)Cc2ccccc2)ccc1C(N)=O
